Experimental data taken from patent US9284369B2, “Inhibition of angiogenesis” (Genentech, Inc., priority 2007, dated 2016).

Tests used:
human neutrophils = assay: Chemotaxis of peripheral blood neutrophils; assay type: cell-based; conditions: for effect on neutrophil migration: all concentrations tested, data not shown
Protocol: 10^6 cells were washed with HBSS containing 0.2% BSA before putting into transwell insert with 5 μm pore size (Corning Incorporated, Lowell, Mass.). In the lower chamber, media alone or media with various cytokines at various concentrations (maximum at 200 ng/ml) was added. After 3 hr at 37° C., cells in the lower chamber were transferred, mixed with 9 ml ZPAK solution and counted on Z2 Coulter Particle Count and Size Analyzer (Beckman Coulter, Fullerton, Calif.).

Bv8 expression [1] = assay: Regulation of Bv8 gene expression in cultured mouse BMMNCs (Taqman); assay type: cell-based; conditions: for up-regulation of Bv8 in unsorted BMMNCs: 10 ng/ml, 4 hr
Protocol: RNA from tissues or cells was prepared using the RNeasy Mini Kit® (Qiagen). 50 ng total RNA per reaction was used for the real time PCR (Taqman™) analysis. For mouse/human Bv8 and EG-VEGF/Bv8 receptor 1 (PKR-1/EG-VEGFR1, R-1), testis RNA (BD Biosciences) served as control. For mouse/human EG-VEGF/Bv8 receptor 2 (PKR-2/EG-VEGFR2, R2), hypothalamus or whole brain (BD Biosciences) served as the control tissues. Reactions were run on 9600 Emulation mode of 7500 Real […] time PCR system (Applied Biosystems) and the absolute quantification with standard curve was used with Sequence Detection System (SDS) software. The expression level of each gene was further quantified against the house-keeping gene RPL19 in the same sample. To confirm the expression of VEGFR-1, VEGFR-2, EG-VEGF/Bv8 R1 and EG-VEGF/Bv8 R2 in the tumor-associated endothelial cells, standard RT-PCR was conducted using the Titan One Tube™ RT-PCR system (Roche) and the end products were checked on 2% agarose gel (Invitrogen) for the correct size. The sequence of Taqman™ primers are as follows: […]
Recombinant mouse MCP-1, MIP-1α, MIP-1β, MIP-2, bFGF, VEGF, GM-CSF, G-CSF, SDF-1 and TNFα were purchased from R&D Systems (Minneapolis, Minn.). Recombinant mouse KC, IFNγ, Bv8 (Prokineticin-2), IL-4, IL-10, IL-13, TGF-β were from PeproTech Inc. (Rocky Hill, N.J.). […] Conditioned media at 1:3 dilution were used (final FBS concentration was 0.17%). Data were normalized against total cell number. BM cells were flushed from mouse leg bones with DMEM containing 10% FBS. Cells were centrifuged at 1200 rpm for 5 min and resuspended in HBSS media containing 0.2% BSA (low endotoxin, Serologicals Corp. Norcross, Ga.). Two million cells were incubated in 24-well plates with various cytokines for 4 hr at 37° C. in a 5% CO2 incubator. Cells were then transferred in eppendorf tubes, centrifuged and lysed by RNA lysis buffer (Qiagen, Valencia, Calif.). Bv8 expression was assessed by Taqman™ with RPL19 (Ribosomal Protein L19) as the internal control gene. In some cases, CD11b+Gr1+ or CD11b−Gr1− BM cells were obtained using FACS sorting.

Bv8 expression [2] = assay: Regulation of Bv8 gene expression in cultured human blood and bone marrow cells (Taqman); assay type: cell-based; conditions: for induction of Bv8 expression in human neutrophils and whole bone marrow cells / Bv8 expression in monocytes and lymphocytes: 10 ng/ml, 4 hr
Protocol: RNA was prepared using the RNeasy™ Mini Kit (Qiagen). 50 ng total RNA per reaction was used for the real time PCR (Taqman) analysis. For human Bv8, testis RNA (BD Biosciences) served as control. Reactions were run on 9600 Emulation mode of 7500 Real time PCR system (Applied Biosystems, Foster City, Calif.) and the absolute quantification with standard curve was used with Sequence Detection System (SDS) software. The expression level of each gene was further quantified relative to the housekeeping gene RPL19 in the same sample. The sequences of Taqman primers are as follows: Human Bv8 forward: ATG GCA CGG AAG CTA GGA (SEQ ID NO: 10), reverse: GCAGAGCTGAAGTCCTCTTGA (SEQ ID NO: 11), probe: TGCTGCTGGACCCTTCCTAAACCT (SEQ ID NO: 12); Human RPL19 forward: CGC AAG CGC CGT GAA (SEQ ID NO: 28), reverse: GGTCTCTTCCTCCTTGGATAAAGTC (SEQ ID NO: 29), probe: CCAGGCCAAGAAGGAGGAGATCATCA (SEQ ID NO: 30). Human specific VEGF forward: AAT GAC GAG GGC CTG GAG T (SEQ ID NO: 31), reverse: TTGATCCGCATAATCTGCATG (SEQ ID NO: 32), probe: TGTGCCCACTGAGGAGTCCAACATCA (SEQ ID NO: 33).
(§1) Recombinant human MCP-1, MIP-1α, MIP-1β, MIP-2, bFGF, VEGF, GM-CSF, G-CSF, SDF-1α, M-CSF, Erythropoietin (EPO) and TNFα were purchased from R&D Systems (Minneapolis, Minn.). Recombinant human IL-8, IFNγ, Bv8 (Prokineticin-2), IL-4, IL-10, IL-13, TGF-β were from PeproTech Inc. (Rocky Hill, N.J.). SCF (Stem Cell factor) was from Invitrogen Biosource (Carlsbad, Calif.). In some cases, G-CSF from Amgen (Neupogen/Filgrastim) was used. All cytokines were used at 10 ng/ml. Freshly purified cells were washed and re-suspended in HBSS media containing 0.2% BSA (low endotoxin, Serologicals Corp. Norcross, Ga.). Two million cells were incubated in 24-well plates with various cytokines and chemokines for 4 hr at 37° C. in a 5% CO2 incubator. Cells were then transferred into eppendorf tubes, centrifuged and lysed with RNA lysis buffer (Qiagen, Valencia, Calif.). Bv8 expression was assessed by Taqman with RPL19 (Ribosomal Protein L19) as the internal control gene.

[3] = system: PKR2/EG-VEGFR2 expression; assay: Regulation of PKR2/EG-VEGFR2 expression in human bone marrow cells and neutrophils; assay type: cell-based
Excerpt: Taqman reagents for human PKR1/EG-VEGFR1 and PKR2/EG-VEGFR2 were obtained from Applied Biosystems.
as §1

Bv8 expression [4] = assay: Bv8 expression in human leukemia cell lines; assay type: cell-based
Protocol: U937, HL-60, THP-1, Hel 92.1.7, KG-1, K562, Jurkat cells were obtained from the ATCC® (Manassas, Va.). Most cells were grown in 10% FBS-containing RPMI. KG-1 cells were grown in 20% FBS-containing Iscove's modified Dulbecco's medium. For THP-1 cells, 10% FBS-containing RPMI was used with Sodium Pyruvate, HEPES and β-mercaptoethanol. For regulation studies, 1 million cells with viability higher than 95% were used. Regulation studies were performed under both normoxia and hypoxia conditions for 4 hr in 1 ml HBSS media containing 0.2% BSA.

PKR1/EG-VEGFR1 = target: T1, PKR1/EG-VEGFR1 (Homo sapiens, UniProt Q8TCW9); assay: Bv8 bioactivity assay, GeneBLAzer NFAT-CHO cells transfected with PKR1/EG-VEGFR1; assay type: cell-based; conditions: Bv8 0.2-200 ng/ml; VEGF-A up to 200 ng/ml
T1 construct: host or cells: GeneBLAzer NFAT-CHO cells
T1 sequence (Q8TCW9 whole entry): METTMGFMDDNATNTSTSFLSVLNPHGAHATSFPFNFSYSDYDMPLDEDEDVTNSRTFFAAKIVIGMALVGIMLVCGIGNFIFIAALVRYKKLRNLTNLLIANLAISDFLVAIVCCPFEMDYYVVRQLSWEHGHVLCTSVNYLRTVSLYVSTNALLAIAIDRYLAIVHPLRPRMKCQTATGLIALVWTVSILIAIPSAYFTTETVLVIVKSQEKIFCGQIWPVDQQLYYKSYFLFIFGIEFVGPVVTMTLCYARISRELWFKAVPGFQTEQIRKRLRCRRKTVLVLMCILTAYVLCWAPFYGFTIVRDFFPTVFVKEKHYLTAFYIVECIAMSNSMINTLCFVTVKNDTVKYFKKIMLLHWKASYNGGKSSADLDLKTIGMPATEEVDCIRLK
Protocol: The GeneBLAzer® NFAT-CHO cells were obtained from Invitrogen Corporation (Carlsbad, Calif.). Cells were stably transfected with PKR1/EG-VEGFR1 and grown in DMEM (high glucose) containing 10% dialysed serum, 0.1 mM NEAA, 2 mM GlutaMax™ (Gibco), 1 mM sodium pyruvate, 10 μg/ml Zeocin, 500 μg/ml hygromycin. Cells were plated into 96-well Viewplate (Packard) with 2.5×10^4 in […] in 1% DMEM overnight at 5% CO2, 37° C. On the following day, cells were treated with various column fractions that were concentrated with Microcon Centrifugal Filter Devices (Ultracel YM-3) from Millipore. 0.2-0.02 ng/ml hBv8 (Peprotech Inc.) prepared in 1% DMEM was used as a positive control. One hour later, media was removed and replaced with […] Hank's solution containing 0.1% BSA and 6× loading buffer containing 1 mM CCF4 (Invitrogen Corporation). Plates were incubated for 1.5 hr at room temperature in the dark and read on Wallac plate reader at excitation wavelength of 410 nm and emission wavelength of 450/520 nm. Negative controls were cells with no ligand added and control media alone. CHO cells were stimulated with recombinant human Bv8 or pooled fractions for 1 hr before adding the β-lactamase substrate CCF4. To assess the specificity of the column fractions, anti-Bv8 antibodies 2B9 and 3F1 were added at […].

TIB42-TAEC cells = assay: In vitro tube formation of tumor-associated endothelial cells; assay type: cell-based, mouse; conditions: Bv8 200 ng/ml, VEGF-A 100 ng/ml, 36 hours
Protocol: Tumor associated endothelial cells (TAECs) were isolated using a magnetic beads sorting system (Miltenyi Biotech), essentially as previously described (Hida et al., Cancer Res 64:8249-8255 (2004)). Briefly, TIB42 mouse lymphoma cells were injected into the dorsal lateral flanks of female beige nude mice. When tumors reached a diameter of […], they were excised, minced and then digested with collagenase II (Worthington Biochemical Corporation). Cell suspensions were than filtered using 100 μm to 40 μm meshes. CD31^+ cells were finally sorted using a FITC-CD31 antibody (BD Biosciences) according to the manufacturer's instructions. CD31+ cells were seeded in gelatin coated plates in the presence of EGM-2MV media (Cambrex). After 24 hs in culture CD31+ non-adherent cells were removed by washing several times with PBS.
For in vitro tube formation, TIB42-TAEC cells (passages 6-8) were starved for 5 hs in serum free medium. After this, cells were collected and resuspended in serum free medium supplemented with 5% BSA and treated with VEGF-A (100 ng/ml), Bv8 (200 ng/ml) or no addition (control). For specificity tests, Bv8, was incubated in the presence of anti-Bv8 Mabs (10 μg/ml). 5×10^5 cells were seeded in each well of a 24 well pre-coated with Matrigel™ (BD Biosciences) and tube formation was evaluated after 36 hours.

p44/42 MAPK = assay: MAPK phosphorylation in TAECs (Western blot); assay type: cell-based, mouse
Protocol: TIB42-TAEC cells were starved for 6 hr in basal media supplemented with 0.5% BSA. Cells were then stimulated with human recombinant Bv8 (200 ng/ml; PeproTech), Complete Media (CM), VEGF (100 ng/ml; PeproTech) or BSA (0.5%). Cell extracts were collected at the indicated time-points. Western blot analysis of the extracts from TIB42-TAEC cells was performed using PhosphoPlus p44/42 MAPK™ antibody kit (Cell signaling).

MCP-1: recombinant human MCP-1 (R&D Systems)
effect on neutrophil migration (human neutrophils): did not show any effect

SDF-1: recombinant mouse SDF-1 (R&D Systems)
up-regulation of Bv8 in unsorted BMMNCs (Bv8 expression [1]): did not show any significant stimulation

IL-1β: cytokine interleukin-1β
induction of Bv8 expression in human neutrophils and whole bone marrow cells (Bv8 expression [2]): no stimulatory effect

GM-CSF: recombinant mouse or human granulocyte-macrophage-CSF (R&D Systems)
effect on Bv8 expression (Bv8 expression [1]; BMMNCs and sorted subsets (FIG. 1 c&d)): no effect
induction of Bv8 expression in human neutrophils and whole bone marrow cells (Bv8 expression [2]): ~2.5 fold
inhibition of Bv8 expression in human monocytes (Bv8 expression [2]; 4 hr treatment): about 75%
regulation of PKR2/EG-VEGFR2 in human bone marrow [3]: regulate PKR2/EG-VEGFR2 to a significant level
up-regulation of PKR2/EG-VEGFR2 expression in human neutrophils ([3]; 4 hr incubation, average): 4 fold
Bv8 expression in HL-60 (Bv8 expression [4]): Neither G-CSF nor GM-CSF affected Bv8 expression
induction of Bv8 expression in leukemia cell lines (Bv8 expression [4]; any of the cell lines tested): no significant induction

VEGF-A: recombinant vascular endothelial growth factor-A
stimulation of PKR1/EG-VEGFR1 transfected CHO cells (PKR1/EG-VEGFR1): did not elicit any response
tube formation in Matrigel (TIB42-TAEC cells): formed tubes
MAP kinase phosphorylation in TAECs (p44/42 MAPK): strong induction of MAP kinase phosphorylation
effect on neutrophil migration (human neutrophils): did not show any effect

SCF: Stem Cell factor (Invitrogen Biosource)
induction of Bv8 expression in human neutrophils and whole bone marrow cells (Bv8 expression [2]): no effect

IL-8: recombinant human IL-8 (PeproTech)
concentration required to stimulate neutrophil migration (human neutrophils): 20 nM

IL-6: cytokine interleukin-6
up-regulation of Bv8 in unsorted BMMNCs (Bv8 expression [1]): did not show any significant stimulation
induction of Bv8 expression in human neutrophils and whole bone marrow cells (Bv8 expression [2]): no stimulatory effect

SDF-1α
Bv8 expression in monocytes and lymphocytes (Bv8 expression [2]): significant stimulatory effect only on monocytes
concentration required to stimulate neutrophil migration (human neutrophils): 20 nM

B1: IL-10: recombinant human IL-10 (PeproTech) (protein, UniProt P22301 19-178, looked up)
Interleukin-10: SPGQGTQSENSCTHFPGNLPNMLRDLRDAFSRVKTFFQMKDQLDNLLLKESLLEDFKGYLGCQALSEMIQFYLEEVMPQAENQDPDIKAHVNSLGENLKTLRLRLRRCHRFLPCENKSKAVEQVKNAFNKLQEKGIYKAMSEFDIFINYIEAYMTMKIRN
Bv8 expression in monocytes and lymphocytes (Bv8 expression [2]): up-regulated

B2: M-CSF: recombinant human M-CSF (R&D Systems) (protein, UniProt P09603 33-554, looked up)
Macrophage colony-stimulating …: EEVSEYCSHMIGSGHLQSLQRLIDSQMETSCQITFEFVDQEQLKDPVCYLKKAFLLVQDIMEDTMRFRDNTPNAIAIVQLQELSLRLKSCFTKDYEEHDKACVRTFYETPLQLLEKVKNVFNETKNLLDKDWNIFSKNCNNSFAECSSQDVVTKPDCNCLYPKAIPSSDPASVSPHQPLAPSMAPVAGLTWEDSEGTEGSSLLPGEQPLHTVDPGSAKQRPPRSTCQSFEPPETPVVKDSTIGGSPQPRPSVGAFNPGMEDILDSAMGTNWVPEEASGEASEIPVPQGTELSPSRPGGGSMQTEPARPSNFLSASSPLPASAKGQQPADVTGTALPRVGPVRPTGQDWNHTPQKTDHPSALLRDPPEPGSPRISSLRPQGLSNPSTLSAQPQLSRSHSSGSVLPLGELEGRRSTRDRRSPAEPEGGPASEGAARPLPRFNSVPLTDTGHERQSEGSFSPQLQESVFHLLVPSVILVLLAVGGLLFYRWRRRSHQEPQRADSPLEQPEGSPLTQDDRQVELPV
induction of Bv8 expression in human neutrophils and whole bone marrow cells (Bv8 expression [2]): no effect
